Among the data in ChEMBL document CHEMBL1123991 (J Med Chem, 1988) are Ratio, Radioactivity and IC50 values, retold here.

Assay [1] is described as follows: Ratio of uptake of [125I]- (S)-N-(1-Ethyl-pyrrolidin-2-ylmethyl)-5-iodo-2-methoxy-benzamide in striatum:striatum; 1.0:1. It counts as functional.
A short description of assay [2]: Ratio of uptake of [125I]- (S)-N-(1-Ethyl-pyrrolidin-2-ylmethyl)-5-iodo-2-methoxy-benzamide in striatum:cerebellum; 7.2:1. It counts as functional.
Assay [3] deals with Rattus norvegicus. In words: Regional uptake of [125I]- (S)-N-(1-Ethyl-pyrrolidin-2-ylmethyl)-5-iodo-2-methoxy-benzamide in rat striatum 60 min after intravenous administration. In kind it is functional, organism-based.
The subject of assay [4] is Rattus norvegicus. In words: Regional uptake of [125I]- (S)-N-(1-Ethyl-pyrrolidin-2-ylmethyl)-5-iodo-2-methoxy-benzamide in rat cerebellum 60 min after intravenous administration. In kind it is functional, organism-based.
The test system of assay [5] is Rattus norvegicus. The assay is described as follows: Regional uptake of [125I]- (S)-N-(1-Ethyl-pyrrolidin-2-ylmethyl)-5-iodo-2-methoxy-benzamide in rat frontal cortex 60 min after intravenous administration. It counts as functional, organism-based.
Assay [6] has as its target D(2) dopamine receptor (Rattus norvegicus, UniProt P61169). In words: Inhibition of 0.1 nM of [125I]- (S)-N-(1-Ethyl-pyrrolidin-2-ylmethyl)-5-iodo-2-methoxy-benzamide binding in striatal homogenates of rat brain. In kind it is tissue-based.
Assay [7] in a line: Ratio of uptake of [125I]- (S)-N-(1-Ethyl-pyrrolidin-2-ylmethyl)-5-iodo-2-methoxy-benzamide in striatum:frontal cortex; 4.7:1. In kind it is functional.

As a reminder, the IC50 is the concentration that inhibits the measured activity by half. Read a high IC50 as weaker potency.

Chain of D(2) dopamine receptor (P61169 whole entry): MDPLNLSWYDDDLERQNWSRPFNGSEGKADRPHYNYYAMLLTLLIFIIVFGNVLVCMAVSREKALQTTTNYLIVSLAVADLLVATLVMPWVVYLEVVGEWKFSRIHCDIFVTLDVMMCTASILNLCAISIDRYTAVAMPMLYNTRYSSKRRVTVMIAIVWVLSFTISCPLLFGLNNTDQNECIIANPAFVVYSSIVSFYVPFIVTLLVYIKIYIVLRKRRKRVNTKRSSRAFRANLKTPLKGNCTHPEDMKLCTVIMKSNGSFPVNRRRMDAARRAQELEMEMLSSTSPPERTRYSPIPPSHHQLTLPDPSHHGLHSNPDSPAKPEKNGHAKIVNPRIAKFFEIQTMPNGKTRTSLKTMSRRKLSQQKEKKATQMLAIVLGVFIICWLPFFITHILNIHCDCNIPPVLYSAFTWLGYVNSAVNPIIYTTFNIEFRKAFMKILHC

`CCN1CCC[C@@H]1CNC(=O)c1cc(I)ccc1OC`: the Ratio in assay [1] is on record as 1; in assay [2] it was 7.2; in assay [7], 4.7. Moreover, the Radioactivity in assay [3] amounted to 56.2 nCi g-1; in assay [4], 7.8 nCi g-1; in assay [5], 11.9 nCi g-1. Besides, the IC50 in assay [6] came out at 113 nM.

For the compound `CCN1CCC[C@H]1CNC(=O)c1cc(I)ccc1OC` [IODOPRIDE], the IC50 in assay [6] came out at 1.5 nM.
